Assay results reported in patent US11931397B2, “Methods and compositions for the treatment of Sengers syndrome” (Stealth BioTherapeutics Inc., priority 2018, dated 2024).
Where a SMILES comes first, the peptide text is derived from it. Where no end group is shown, it is not given here. [ ]: non-standard residue; d: D form. Dmt = Cc1cc(O)cc(C)c1C[C@H](N)C(=O)O

Tests used:
[1] = test system: several mammalian cell types; settings: cited from earlier work
[2] = test system: patient with a homozygous AGK founder mutation (Sengers syndrome); settings: approximately six months, 0.25 then 0.50 mg/kg/day intravenous
Method: The patient was treated with D-Arg-2′6′-Dmt-Lys-Phe-NH2 for approximately six months through a compassionate care protocol.

mu-opioid receptor = mu-opioid receptor (Homo sapiens, UniProt P35372); assay: Mu-opioid receptor agonist activity (stated, no test described); settings: statement of the description, no test given
Chain of mu-opioid receptor (P35372 whole entry, species assumed): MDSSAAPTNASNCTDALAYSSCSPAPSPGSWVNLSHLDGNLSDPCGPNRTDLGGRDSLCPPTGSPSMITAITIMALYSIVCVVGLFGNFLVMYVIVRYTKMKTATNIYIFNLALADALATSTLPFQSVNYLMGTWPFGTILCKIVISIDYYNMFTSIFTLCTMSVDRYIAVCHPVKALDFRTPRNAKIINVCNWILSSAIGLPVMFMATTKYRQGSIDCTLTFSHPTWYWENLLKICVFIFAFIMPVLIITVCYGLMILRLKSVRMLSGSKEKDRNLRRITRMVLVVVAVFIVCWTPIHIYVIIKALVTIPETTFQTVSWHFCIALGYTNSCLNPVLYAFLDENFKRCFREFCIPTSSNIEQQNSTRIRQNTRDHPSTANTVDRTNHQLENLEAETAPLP

Compound	mu-opioid receptor agonist activity (mu-opioid receptor)	also measured
2′, 6′-Dmt-D-Arg-Phe-Lys-NH2		Penetration of the plasma membrane [1]: readily penetrates the plasma membrane of several mammalian cell types in an energy-independent manner
Cc1cc(O)cc(C)c1C[C@H](NC(=O)[C@H](N)CCCNC(=N)N)C(=O)N[C@@H](CCCCN)C(=O)N[C@@H](Cc1ccccc1)C(N)=O [D-Arg-2′6′-Dmt-Lys-Phe-NH2] (H-[dR][Dmt]KF-NH2)		Side effects attributable to treatment [2]: no discernable side effects
F[dR]FK-NH2	does not have mu-opioid receptor agonist activity	
Tyr-D-Arg-Phe-Lys-NH2	has mu-opioid receptor agonist activity	
